“And” between values parts separate entries of the source, which are not always exact repeats. Equal values may be shown once.

Experiment [1] addresses T1, Sir2p (yeast) (Saccharomyces cerevisiae, UniProt P06700). The experiment is described as follows: HPLC assay of deacetylation, histone H4 substrate (Example 3). Type of experiment: biochemical. Particulars: Yeast enzyme.
Experiment [2] has as its target T2, Af2Sir2 (archaean) (Archaeoglobus fulgidus, UniProt O30124).
T2 sequence (O30124 1-253): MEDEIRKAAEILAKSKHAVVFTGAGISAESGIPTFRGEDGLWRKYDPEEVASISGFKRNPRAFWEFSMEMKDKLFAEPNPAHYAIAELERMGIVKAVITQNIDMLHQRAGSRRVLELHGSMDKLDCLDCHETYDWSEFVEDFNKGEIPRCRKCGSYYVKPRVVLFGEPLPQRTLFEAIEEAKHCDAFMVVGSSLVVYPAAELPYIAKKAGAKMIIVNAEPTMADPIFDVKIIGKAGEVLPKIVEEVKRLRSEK
The description is as above. It counts as biochemical. Particulars: Archaea enzyme.
Description: (§4) NAD^+ in 50 μL 50 mM potassium phosphate pH 7.0. Each solution also contained a variable amount of 2-Fluoronicotinamide with concentrations of 0, 5, 10, 20, 40 and 80 mM of the compound. […] Deacetylation was assayed by integration of the peaks for AADPR and ADPR in reaction mixtures.

The target in experiment [3] is T2, Af2Sir2 (archaean). The experiment in a line: HPLC assay of base exchange, histone H4 substrate (Example 3). Conditions: Archaea enzyme.
Description: as §4
Experiment [4] has as its target T2, Af2Sir2 (archaean). The experiment is described as follows: biochemical.
Description: as §4
Experiment [5] concerns the target T1, Sir2p (yeast). The experiment is described as follows: HPLC assay of base exchange, histone H4 substrate (Example 3). Particulars: for % rate (base exchange) / Cpm/sample (radioactivity in NAD peak): Yeast enzyme. Type of experiment: biochemical.
The target of experiment [6] is T3, Mouse SIR2 enzyme (SIR2α) (Mus musculus, UniProt Q923E4).
T3 construct: purchased Upstate Group
T3 sequence (Q923E4 1-737): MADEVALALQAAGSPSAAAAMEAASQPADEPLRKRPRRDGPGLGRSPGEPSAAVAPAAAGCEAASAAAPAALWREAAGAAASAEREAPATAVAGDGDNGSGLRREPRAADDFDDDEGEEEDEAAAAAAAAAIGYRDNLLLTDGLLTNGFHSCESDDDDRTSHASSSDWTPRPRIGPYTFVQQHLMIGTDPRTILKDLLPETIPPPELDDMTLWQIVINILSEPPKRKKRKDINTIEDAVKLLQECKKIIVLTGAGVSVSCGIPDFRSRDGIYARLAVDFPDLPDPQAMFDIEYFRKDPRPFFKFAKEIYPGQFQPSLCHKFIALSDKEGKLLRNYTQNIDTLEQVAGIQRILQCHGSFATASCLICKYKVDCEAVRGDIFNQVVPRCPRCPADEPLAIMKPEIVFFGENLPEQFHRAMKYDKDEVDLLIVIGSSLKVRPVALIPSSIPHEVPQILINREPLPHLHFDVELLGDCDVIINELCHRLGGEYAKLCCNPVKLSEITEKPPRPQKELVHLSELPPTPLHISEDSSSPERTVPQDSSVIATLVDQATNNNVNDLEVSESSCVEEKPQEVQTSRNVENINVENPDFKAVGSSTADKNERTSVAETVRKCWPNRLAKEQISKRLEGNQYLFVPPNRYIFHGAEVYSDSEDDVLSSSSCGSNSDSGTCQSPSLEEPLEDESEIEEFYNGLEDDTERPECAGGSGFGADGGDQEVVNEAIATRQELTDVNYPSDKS
The experiment is described as follows: SIR2 deacetylation assay (p53 peptide, HPLC of ADPR and 3′-O-acetyl-ADPR). Type of experiment: biochemical. On the procedure:
(§1) After 2 hours, aliquots of 10 μL removed at 0, 30, 60, 90 and 120 min. Each aliquot was combined with 50 μL 50 mM ammonium acetate pH 5.0 to quench and assayed by HPLC for deacetylation products and NAD^+. The chromatograms (260 nm) were obtained using 50 mM ammonium acetate pH 5.0 as eluant on a semi-preparative Waters C-18 column (2.0 mL/min flow rate). Peaks for ADPR and 3′-O-Acetyl-ADPR were quantified by integration. The peak for NAD^+ was collected and radiation counted.
(§2) Reactions were as above but base reactions contained 5 mM of pyrazinamide, isonicotinamide, thionicotinamide, or benzamide. Reactions were carried out (2 hours for AF2 and yeast enzymes and 3 hours for mouse enzyme) at 37° C. and quenched by addition of 80 μL 50 mM ammonium acetate pH 5.0. Product formation was quantified by HPLC. […] Rates were compared with controls lacking added base.

In experiment [7] the target is T4, Yeast SIR2p (Saccharomyces cerevisiae, UniProt P06700).
T4 construct: made in house
The description is as above. Type of experiment: biochemical. On the procedure: as §1, §2

Experiment [8] has as its target T5, Bacterial SIR2Af2 (Archaeoglobus fulgidus, UniProt O30124).
T5 construct: made in house
T5 sequence (O30124 1-253): T2 sequence (O30124 1-253)
The description is as above. It counts as biochemical, Archeaglobus fulgidus. How it is done: (§3) After 2 hours, aliquots of 10 μL removed at 0, 30, 60, 90 and 120 min. Each aliquot was combined with 50 μL 50 mM ammonium acetate pH 5.0 to quench and assayed by HPLC for deacetylation products and NAD^+. The chromatograms (260 nm) were obtained using 50 mM ammonium acetate pH 5.0 as eluant on a semi-preparative Waters C-18 column (2.0 mL/min flow rate). Peaks for ADPR and 3′-O-Acetyl-ADPR were quantified by integration. The peak for NAD^+ was collected and radiation counted. […] Plots of deacetylation rate versus nicotinamide were fit to the equations described in the text.
Reactions were as above but base reactions contained 5 mM of pyrazinamide, isonicotinamide, thionicotinamide, or benzamide. Reactions were carried out (2 hours for AF2 and yeast enzymes and 3 hours for mouse enzyme) at 37° C. and quenched by addition of 80 μL 50 mM ammonium acetate pH 5.0. Product formation was quantified by HPLC. Thionicotinamide-NAD^+ was synthesized by CD38. Rates were compared with controls lacking added base.

Experiment [9] concerns the target T5, Bacterial SIR2Af2. The experiment in a line: SIR2 nicotinamide base-exchange assay (p53 peptide, HPLC/14C). Further details: kcat (exchange): dose or concentration left out as unconfirmed. It counts as biochemical, Archeaglobus fulgidus. How it is done:
as §3

The test system of experiment [10] is Sir2-dependent transcriptional silencing at the silent mating-type loci (HMR, HML). The experiment is described as follows: Silent mating-type locus reporter silencing, spot assay. Type of experiment: cell-based, yeast. On the procedure:
The photographs were taken after 2 to 3 days incubation. […] Isogenic strains UCC4562 (DOT1) and UCC4554 (dot1Δ) (Singer et al., 1998) are shown in each panel (top and bottom rows, respectively). […] The phenotype of strain CCFY10028 (top row) is compared to an isogenic sir2 derivative (bottom row). The sir2 deletion strain was generated by PCR-mediated gene disruption using a Nat-MX selectable marker (Tong et al., 2004).
The deletion strains were generated by PCR-mediated gene disruption using a Nat-MX selectable marker (Tong et al., 2004). Silencing at TEL-VR::URA3 is reported by survival on FOA-containing media and at HMR::TRP1 is detected by reduced growth on media lacking tryptophan.
The effect of isonicotinamide on Sir2 activity at the silent mating-type loci was measured in an HMR: TRP1 strain by growth on medium lacking tryptophan (FIG. 8b). Silencing of TRP1 decreases growth on Trp^− media.

The target of experiment [11] is Yeast Sir2 (Saccharomyces cerevisiae, UniProt P06700). The experiment is described as follows: Sir2 catalyzed deacetylation of H4 N-terminal peptide. Type of experiment: biochemical. Particulars: Ki, apparent nicotinamide inhibition constant (deacetylation). On the procedure:
Measurements were performed by methods described in Sauve and Schramm (2003) with the H4N-terminal peptide (AGG(AcK)GG(AcK)GMG(AcK)VGA(AcK)RHSC) (Imai et al., 2000) as substrate.

Experiment [12] addresses T3, Mouse SIR2 enzyme (SIR2α). The experiment is described as follows: SIR2 nicotinamide base-exchange assay (p53 peptide, HPLC/14C). It counts as biochemical. Further details: kcat (exchange): dose or concentration left out as unconfirmed. How it is done: as §1
Experiment [13] addresses T4, Yeast SIR2p. The experiment is described as above. Type of experiment: biochemical. Further details: kcat (exchange): dose or concentration left out as unconfirmed. How it is done: as §1

T4 sequence (P06700 whole entry): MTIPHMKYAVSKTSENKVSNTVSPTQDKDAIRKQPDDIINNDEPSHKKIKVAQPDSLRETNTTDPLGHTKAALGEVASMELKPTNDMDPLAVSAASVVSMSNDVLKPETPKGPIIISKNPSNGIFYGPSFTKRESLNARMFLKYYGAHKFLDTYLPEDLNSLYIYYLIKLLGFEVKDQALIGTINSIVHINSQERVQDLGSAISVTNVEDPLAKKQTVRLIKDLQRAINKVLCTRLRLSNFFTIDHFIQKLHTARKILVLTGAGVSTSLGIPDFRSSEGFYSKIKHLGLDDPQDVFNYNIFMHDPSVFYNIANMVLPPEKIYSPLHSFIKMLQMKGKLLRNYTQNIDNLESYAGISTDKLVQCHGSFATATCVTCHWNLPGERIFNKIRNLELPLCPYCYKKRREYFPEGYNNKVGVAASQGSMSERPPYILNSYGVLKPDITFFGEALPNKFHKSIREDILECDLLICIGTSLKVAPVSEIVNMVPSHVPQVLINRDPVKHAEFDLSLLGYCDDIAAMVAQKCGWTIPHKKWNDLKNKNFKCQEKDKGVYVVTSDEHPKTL
Yeast Sir2, sequence (P06700 whole entry): as above
T1 sequence (P06700 whole entry): as above

`NC(=O)c1cccnc1F`: the “% rate (deacetylation)” value in [1] (5 mM) is given as 100%; in experiment [1] (10 mM) it was 97%; in [1] (20 mM), 100%; in experiment [1] (40 mM), 95%; in experiment [1] (80 mM) it was 95%; in experiment [2] (5 mM) it was 100%. Also, the “% rate (deacetylation)” value in [2] (10 mM), in [2] (20 mM), in experiment [2] (40 mM) and in experiment [2] (80 mM) was 100% throughout. The “% rate (base exchange)” value came out at 91% in [3] (5 mM); 80% in [3] (10 mM); 73% in [3] (20 mM); 50% in experiment [3] (40 mM); 35% in [3] (80 mM); 76% in experiment [5] (5 mM). Further, the “% rate (base exchange)” value in [5] (10 mM) is listed as 58%; in [5] (20 mM), 47%; in experiment [5] (40 mM) it was 36%; in [5] (80 mM), 28%. In addition, the “Cpm/sample (radioactivity in NAD peak)” value in [3] (5 mM) is 18,200 Cpm/sample; in [3] (10 mM) it was 16,100 Cpm/sample; in [3] (20 mM) it was 14,600 Cpm/sample; in [3] (40 mM), 10,300 Cpm/sample; in [3] (80 mM), 7,000 Cpm/sample; in experiment [5] (5 mM), 24,500 Cpm/sample. For the same compound, the “Cpm/sample (radioactivity in NAD peak)” value in experiment [5] (10 mM) is recorded as 18,800 Cpm/sample; in [5] (20 mM) it was 15,200 Cpm/sample; in experiment [5] (40 mM), 11,600 Cpm/sample; in experiment [5] (80 mM), 9,000 Cpm/sample. For the same compound, the Ki in experiment [4] was found to be 43 mM; in [5], 20 mM.

On to `NC(=O)c1ccccc1` [Benzamide], for which the values for the inhibition at 5000 µM in [6], in experiment [7] and in [8] were 44%, 0% and 5%, respectively.

For the compound `NC(=O)c1cnccn1` [Pyrazinamide], the results for the inhibition at 5000 µM in [6], in experiment [7] and in experiment [8] were 1%, 1% and 4%, respectively.

As to `NC(=S)c1cccnc1` [Thionicotinamide], the figures for the inhibition at 5000 µM in experiment [6], in [7] and in [8] were 16%, 15% and 4%, respectively.

In the case of `NC(=O)c1cccnc1` [nicotinamide], the Ki in experiment [9] was above 8 mM; in [6] it was 160 µM; in experiment [7] it was 120 ± 25 µM; in experiment [11] (0 mM isonicotinamide), 100 µM; in [11] (60 mM isonicotinamide) it was 180 µM; in experiment [11] (100 mM isonicotinamide), 330 µM. The Ki in experiment [12] is above 8 mM; in experiment [13], above 8 mM; in [8] it was 26 ± 4 µM. The “kcat (exchange)” value in experiment [9] (bacterial enzyme, from nicotinamide saturation curves, pH 7.8) was 0.35 ± 0.04 min⁻¹; in [12] (mouse enzyme, from nicotinamide saturation curves, pH 7.8) it was 3.0 ± 0.2 min⁻¹; in [13] (yeast enzyme, from nicotinamide saturation curves, pH 7.8), 5.8 ± 0.4 min⁻¹. Besides, the “intermediate returned to acetylated protein” value was determined as 95% in [6] (mouse SIR2, saturation of the nicotinamide site); 65% in [7] (yeast SIR2, saturation of the nicotinamide site); 21% in experiment [8] (bacterial SIR2, saturation of the nicotinamide site). In experiment [6] (mouse enzyme, high nicotinamide concentrations), the “inhibition of deacetylation by nicotinamide” value is > 95% and 95%. In addition, the “kinh (deacetylation), residual deacetylation rate” value in experiment [6] (mouse enzyme, in the presence of 2 mM nicotinamide) worked out at 0.014 ± 0.002 min⁻¹; in experiment [7] (yeast enzyme, in the presence of 2 mM nicotinamide), 0.60 ± 0.08 min⁻¹; in experiment [8] (bacterial enzyme, in the presence of 2 mM nicotinamide) it was 1.4 ± 0.2 min⁻¹. In addition, the “reduction of deacetylation rate by nicotinamide” value in experiment [7] (yeast enzyme, high (millimolar) nicotinamide) is on record as 65%; in [8] (bacterial enzyme, high (>10 Ki) nicotinamide), 21%. Further, the “growth phenotype of isogenic sir2Δ strain” value in [10] (HMR::TRP1, Trp− medium) was “Neither compound altered the growth phenotype”. The “growth on Trp− medium” value in [10] (HMR::TRP1 strain, 5 mM nicotinamide) was “increased growth”.

Source of the values: patent US8835467B2, “SIR2 regulation” (Albert Einstein College of Medicine of Yeshiva University, priority 2003, dated 2014).
